# Measurements taken from US20100240598A1, “PEPTIDES AND PEPTIDE MIMETICS TO INHIBIT THE ONSET AND/OR PROGRESSION OF FIBROTIC AND/OR PRE-FIBROTIC PATHOLOGIES” (THE REGENTS OF THE UNIVERSITY OF CALIFORNIA, priority 2009, published 2010).
# Entries after “also recorded” stand apart in the source; their conditions may differ. Read-outs that look alike come from different tables or passages of the source.
# Tests used:
# ApoE null mice [1] = assay: HDL Inflammatory Index after D-4F or Reverse D-4F by stomach tube; type: in vivo; conditions: 0, 3, 6, 12 or 25 micrograms by stomach tube, blood 7 hours later
# Protocol: Female apoE null mice were administered by stomach tube 0, 3, 6, 12, or 25 micrograms of D-4F or Reverse D-4F in 100 microliters of water. Blood was obtained 7 hours later and the plasma was fractionated by FPLC. A standard control human LDL was added to human artery wall cells at a concentration of 100 micrograms of LDL-cholesterol/mL (LDL). The resulting monocyte chemotactic activity was normalized to 1.0. The same LDL at the same concentration was added to the human artery wall cells together with HDL at 50 micrograms HDL-cholesterol/mL from a normal human (hHDL) or from the apoE null mice that received the dose of D-4F or Reverse D-4F shown on the X-axis. The resulting monocyte chemotactic activity was normalized to that of the LDL added without HDL. The resulting value is the HDL Inflammatory Index. The results shown are the Mean±S.D. for the data from three separate experiments.
# ApoE null mice [2] = assay: HDL function after D-4F and/or statin in drinking water for 24 hours; type: in vivo
# [3] = test system: mice fed an atherogenic diet; conditions: 20 μg daily; cited from earlier work
# [4] = Association with pre-beta HDL/HDL and clearance from the circulation after an oral dose
# [5] = test system: Human aortic endothelial cells; assay: Prevention of LDL-induced monocyte chemotactic activity in vitro, co-incubation; type: cell-based; conditions: co-incubation with control human LDL 200 μg protein/ml, overnight
# Protocol: FIG. 1 illustrates a comparison of the effect of […] et al. (2002) Circulation, 105: 290-292) with the effect of an apoJ peptide made from D amino acids (D-J336, […], SEQ ID NO:999)) on the prevention of LDL-induced monocyte chemotactic activity in vitro in a co-incubation. […] D-J336 or D-4F was added to other wells in a concentration range as indicated plus control human LDL (200 μg protein/ml). Following overnight incubation, the supernatants were assayed for monocyte chemotactic activity.
# [6] = test system: Human aortic endothelial cells; assay: Prevention of LDL-induced monocyte chemotactic activity by pre-treatment (pre-incubation) of artery wall cells; type: cell-based; conditions: 6 hrs pre-incubation, then control human LDL 200 μg protein/ml
# Protocol: FIG. 2 illustrates a comparison of the effect of D-4F with the effect of D-J336 on the prevention of LDL induced monocyte chemotactic activity in a pre-incubation. Human aortic endothelial cells were pre-incubated with D-J336 or D-4F at 4, 2, and 1 μg/ml for DJ336 or 100, 50, 25, and 12.5 μg/ml for D-4F for 6 hrs. The cultures were then washed and were incubated with medium alone (no addition), or with control human LDL (200 μg protein/ml), or with control human LDL+control human HDL (350 μg HDL protein/ml) as assay controls. The wells that were pre-treated with peptides received the control human LDL at 200 μg protein/ml. Following overnight incubation, the supernatants were assayed for monocyte chemotactic activity.
# LDL receptor null mice = assay: HDL protective capacity in LDL receptor null mice given peptide in drinking water; type: in vivo; conditions: 0.25 or 0.5 mg per ml drinking water, 24 or 48 hrs; mouse HDL at 100 μg/ml
# Protocol: D-4F designated as F, or the apoJ peptide made from D amino acids (D-J336, designated as J) was added to the drinking water of LDL receptor null mice (4 per group) at 0.25 or 0.5 mg per ml of drinking water. After 24- or 48-hrs blood was collected from the mice and their HDL was isolated and tested for its ability to protect against LDL-induced monocyte chemotactic activity. Assay controls included culture wells that received no lipoproteins (no addition), or control human LDL alone (designated as LDL, 200 μg cholesterol/ml), or control LDL+control human HDL (designated as +HDL, 350 μg HDL cholesterol). For testing the mouse HDL, the control LDL was added together with mouse HDL (+F HDL or +J HDL) to artery wall cell cultures. The mouse HDL was added at 100 μg cholesterol/ml respectively.
# ApoE null mice [7] = assay: Protection against LDL-induced monocyte chemotactic activity by HDL from apo E null mice given oral peptides; type: in vivo; conditions: for activity of murine HDL against LDL-induced monocyte chemotactic activity: drinking water, 24 hrs, murine HDL at 100 μg/ml
# Protocol: After 24 hrs blood was collected, plasma fractionated by FPLC and fractions containing LDL (designated as mLDL for murine LDL) and fractions containing HDL (designated as mHDL) were separately pooled and HDL protective capacity against LDL oxidation as determined by LDL-induced monocyte chemotactic activity was determined. For the assay controls the culture wells received no lipoproteins (no additions), mLDL alone (at 200 μg cholesterol/ml), or mLDL+standard normal human HDL (designated as Cont. h HDL, at 350 μg HDL cholesterol/ml).
# For testing the murine HDL, mLDL together with murine HDL (+F mHDL or +J mHDL) were added to artery wall cell cultures. […] The murine HDL was used at 100 μg cholesterol/ml.
# ApoE null mice [8] = assay: Ability of LDL from apoE null mice given oral peptides to induce monocyte chemotactic activity (LDL susceptibility to oxidation); type: in vivo; conditions: added to the drinking water, 24 hrs
# Protocol: FIG. 5 illustrates the effect of oral apo A-1 peptide mimetic and apoJ peptide on LDL susceptibility to oxidation. […] After 24 hrs blood was collected from the mice shown in FIG. 4, plasma fractionated by FPLC and fractions containing LDL (designated as mLDL for murine LDL) were pooled and LDL susceptibility to oxidation as determined by induction of monocyte chemotactic activity was determined. For the assay controls the culture wells received no lipoproteins (no additions), mLDL alone (at 200 μg cholesterol/ml), or mLDL+standard normal human HDL (designated as Cont. h HDL, 350 μg HDL cholesterol).
# Murine LDL, mLDL, from mice that received the D-4F (F mLDL) or those that received the apoJ peptide (J mLDL) were added to artery wall cell cultures.
# ApoE null mice [9] = assay: HDL protective capacity against PAPC oxidation by HPODE, HDL from apo E null mice given oral peptides; type: in vivo; conditions: added to the drinking water, 24 hrs; murine HDL 100 μg cholesterol/ml
# Protocol: After 24 hrs blood was collected, plasma fractionated by FPLC and fractions containing HDL (designated as mHDL) were pooled and HDL protective capacity against PAPC oxidation as determined by the induction of monocyte chemotactic activity was determined. For the assay controls the culture wells received no lipoproteins (no additions), the phospholipid PAPC at 20 μg/ml+HPODE, at 1.0 μg/ml, or PAPC+HPODE plus standard normal human HDL (at 350 μg HDL cholesterol/ml and designated as +Cont. h HDL).
# For testing the murine HDL, PAPC+HPODE together with murine HDL (+F mHDL or +J mHDL) were added to artery wall cell cultures. […] The murine HDL was used at 100 μg cholesterol/ml.
# PON1 = conditions: added to the drinking water, 24 hrs
# Protocol: After 24 hrs blood was collected and plasma was assayed for PON1 activity.
# ApoE null mice [10] = assay: Trabecular bone mineral density after D-4F in drinking water; type: in vivo; conditions: drinking water for 6 weeks
# Obese Zucker rats = assay: Plasma glucose and lipid hydroperoxides in obese Zucker rats given D-4F; type: in vivo; conditions: 5.0 mg/kg/day intraperitoneal, 10 days, rats 26 weeks of age
# Protocol: Obese Zucker rats 26 weeks of age were bled and then treated with daily intraperitoneal injections of D-4F (5.0 mg/kg/day). After 10 days the rats were bled again plasma glucose and lipid hydroperoxides (LOOH) were determined. *p=0.027; ** p=0.0017.
# ApoE null mice [11] = assay: HDL and pre-beta HDL inhibition of LDL-induced monocyte chemotaxis after feeding solution-phase synthesized D-4F; type: in vivo; conditions: 5 micrograms fed, bled twelve hours after feeding was started
# Text: ApoE null mice were fed 5 micrograms of the D-4F synthesized as described above (Frgmnt) or the mice were given the same amount of mouse chow without D-4F (Chow). Twelve hours after the feeding was started, the mice were bled and their plasma was fractionated on FPLC.
# [12] = mouse, in vivo, po
# human LDL = assay: Treating human LDL in vitro, removal of seeding molecules; type: biochemical
# Text: (§1) We discovered that normal HDL inhibits three steps in the formation of mildly oxidized LDL. […] These seeding molecules were required for cocultures of human artery wall cells to be able to oxidize LDL and for the LDL to induce the artery wall cells to produce monocyte chemotactic activity.
# mice = assay: LDL oxidation resistance after injection of apo A-I into mice; type: in vivo
# Text: as §1
# human volunteers = assay: LDL oxidation resistance after infusion of apo A-I into humans; type: in vivo
# Text: as §1
compound,measurement,setting,value
Ac-FAEKFKEAVKDYFAKFWD-NH2 [Reverse D-4F],"biological activity (HDL Inflammatory Index), D-4F versus Reverse D-4F",ApoE null mice [1],not significantly different
"CC(C)c1c(C(=O)Nc2ccccc2)c(-c2ccccc2)c(-c2ccc(F)cc2)n1CC[C@@H](O)C[C@@H](O)CC(=O)O [atorvastatin, reference compound]","HDL function, statin alone",ApoE null mice [2]; 0.05 mg/ml in drinking water for 24 hours,did not improve HDL function
Ac-D-W-L-K-A-F-Y-D-K-V-F-E-K-F-K-E-F-F-NH2 (Ac-DWLKAFYDKVFEKFKEFF-NH2) [Peptide 5F],"LDL oxidation and induction of monocyte chemotactic activity, PBS-injected versus peptide-injected mice",[3],more readily oxidized and more readily induced monocyte chemotactic activity
Ac-L V G R Q L E E F L-NH2 [D-[113-122]apoJ],association with pre-beta HDL and HDL,[4]; after an oral dose,slowly associates with pre-beta HDL and to a lesser extent with HDL
same,time remaining associated with HDL fractions,"[4]; mouse, in vivo",at least 36 hours
Ac-LLEQLNEQFNWVSRLANLTQGE-NH2 [D-J336],"in vitro concentration that prevents LDL-induced monocyte chemotactic activity, relative to the concentration required for D-4F",[5],10 to 25 times less
same,potency in preventing LDL oxidation by artery wall cells in vitro relative to D-4F,[6],10-25 times more potent
same,activity of mouse HDL in preventing control LDL from inducing monocyte chemotactic activity,LDL receptor null mice,as active as 350 μg/ml of control human HDL
same,potency in enhancing HDL protective capacity compared with D-4F,"ApoE null mice [7]; added to the drinking water, apo E null mice",as potent as D-4F
same,activity of murine HDL against LDL-induced monocyte chemotactic activity,ApoE null mice [7],as active as 350 μg/ml of normal human HDL
same,potency in rendering LDL resistant to oxidation by human artery wall cells compared with D-4F,ApoE null mice [8],slightly more potent than D-4F
same,potency in causing HDL to inhibit oxidation of PAPC by HPODE compared with D-4F,ApoE null mice [9],as potent as D-4F
same,potency in increasing paraoxonase activity compared with D-4F,PON1,at least as potent as D-4F
Ac-DWFKAFYDKVAEKFKEAF-NH2 [Peptide D-4F],activity of mouse HDL in preventing control LDL from inducing monocyte chemotactic activity,LDL receptor null mice,as active as 350 μg/ml of control human HDL
same,activity of murine HDL against LDL-induced monocyte chemotactic activity,ApoE null mice [7],as active as 350 μg/ml of normal human HDL
same,"biological activity (HDL Inflammatory Index), D-4F versus Reverse D-4F",ApoE null mice [1],not significantly different
same,"HDL function, D-4F alone",ApoE null mice [2]; 1 μg/ml in drinking water for 24 hours,did not significantly improve HDL function; also recorded: no effect on HDL function
same,"HDL function, D-4F together with statin",ApoE null mice [2]; D-4F 1 μg/ml together with 0.05 mg/ml of atorvastatin or pravastatin in drinking water,significant improvement in HDL function
same,"anti-inflammatory activity of apoE null HDL compared with normal human HDL, D-4F together with statin","ApoE null mice [2]; mouse HDL at 50 μg/ml of HDL-cholesterol, HPODE oxidizing PAPC in cocultures of human artery wall cells",as anti-inflammatory as 350 μg/ml of normal human HDL; also recorded: as effective as normal human HDL at 350 μg/ml of HDL-cholesterol
same,trabecular bone mineral density,ApoE null mice [10],dramatically increased
same,"symptoms of diabetes (blood glucose, lipid hydroperoxides)",Obese Zucker rats,effective in mitigating symptoms of diabetes
same,biological activity in producing HDL and pre-beta HDL that inhibit LDL-induced monocyte chemotaxis,ApoE null mice [11],very biologically active
same,association with pre-beta HDL and HDL,[12],rapidly associates with pre-beta HDL and HDL
same,detectability in the circulation,[12],essentially non-detectable
"apo A-I: the major protein of HDL, apolipoprotein A-I","effect on seeding molecules (HPODE, HPETE) of human LDL",human LDL,removed seeding molecules from the LDL
same,"oxidation of LDL isolated after injection, by human artery wall cells",mice,resistant to oxidation by human artery wall cells
same,"oxidation of LDL isolated after infusion, by human artery wall cells",human volunteers,resistant to oxidation by human artery wall cells
